This series relates to CCRIS mutagenicity, Ames/micronucleus/aberration tests. The series can be described thus: CCRIS mutagenicity studies.
[1] abbreviates: Test System: AMES SALMONELLA TYPHIMURIUM, Strain/Indicator: TA100, Metabolic Activation: NONE, Method: STANDARD PLATE.
Where [2] appears, read: Test System: AMES SALMONELLA TYPHIMURIUM, Strain/Indicator: TA98, Metabolic Activation: NONE, Method: PREINCUBATION
Setting [3] is: Test System: AMES SALMONELLA TYPHIMURIUM, Strain/Indicator: TA100, Metabolic Activation: HAMSTER, LIVER, S-9, AROCLOR 1254 (10%), Method: PREINCUBATION
[4] abbreviates: Test System: AMES SALMONELLA TYPHIMURIUM, Strain/Indicator: TA100, Metabolic Activation: NONE, Method: PREINCUBATION
Setting [5] is: Test System: AMES SALMONELLA TYPHIMURIUM, Strain/Indicator: TA100, Metabolic Activation: RAT, LIVER, S-9, AROCLOR 1254 (10%), Method: PREINCUBATION
Setting [6] is: Test System: AMES SALMONELLA TYPHIMURIUM, Strain/Indicator: TA1535, Metabolic Activation: HAMSTER, LIVER, S-9, AROCLOR 1254 (10%), Method: PREINCUBATION
[7] abbreviates: Test System: AMES SALMONELLA TYPHIMURIUM, Strain/Indicator: TA1535, Metabolic Activation: NONE, Method: PREINCUBATION
Where [8] appears, read: Test System: AMES SALMONELLA TYPHIMURIUM, Strain/Indicator: TA1535, Metabolic Activation: RAT, LIVER, S-9, AROCLOR 1254 (10%), Method: PREINCUBATION

Structures are written as SMILES. Activity calls are given as the source filed them. No rule for the calls is given here.

Take `CC(C)NCC(O)COc1cccc2c1C=CC2` (stereo unspecified): the mutagenic call runs as follows: (Test System: AMES SALMONELLA TYPHIMURIUM, Strain/Indicator: TA98, Metabolic Activation: NONE, Method: STANDARD PLATE) “inactive; negative”; (Test System: AMES SALMONELLA TYPHIMURIUM, Strain/Indicator: TA98, Metabolic Activation: RAT, LIVER, S-9, AROCLOR 1254, Method: STANDARD PLATE) “inactive; negative”; under setting [1], “inactive; negative”; (Test System: AMES SALMONELLA TYPHIMURIUM, Strain/Indicator: TA100, Metabolic Activation: RAT, LIVER, S-9, AROCLOR 1254, Method: STANDARD PLATE) “inactive; negative”; (Test System: AMES SALMONELLA TYPHIMURIUM, Strain/Indicator: TA102, Metabolic Activation: NONE, Method: STANDARD PLATE) “inactive; negative”; (Test System: AMES SALMONELLA TYPHIMURIUM, Strain/Indicator: TA102, Metabolic Activation: RAT, LIVER, S-9, AROCLOR 1254, Method: STANDARD PLATE) “inactive; negative”.

For the compound `CCCCN(CCO)CCCC`, the mutagenic call was “inactive; negative” (Test System: AMES SALMONELLA TYPHIMURIUM, Strain/Indicator: TA98, Metabolic Activation: HAMSTER, LIVER, S-9, AROCLOR 1254 (10%), Method: PREINCUBATION); “inactive; negative” under setting [2]; “inactive; negative” (Test System: AMES SALMONELLA TYPHIMURIUM, Strain/Indicator: TA98, Metabolic Activation: RAT, LIVER, S-9, AROCLOR 1254 (10%), Method: PREINCUBATION); “inactive; negative” under setting [3]; “inactive; negative” under setting [4]; “inactive; negative” under setting [5]. Besides, the mutagenic call is “inactive; negative” under setting [6]; “inactive; negative” under setting [7]; “inactive; negative” under setting [8]; “inactive; negative” (Test System: AMES SALMONELLA TYPHIMURIUM, Strain/Indicator: TA1537, Metabolic Activation: HAMSTER, LIVER, S-9, AROCLOR 1254 (10%), Method: PREINCUBATION); “inactive; negative” (Test System: AMES SALMONELLA TYPHIMURIUM, Strain/Indicator: TA1537, Metabolic Activation: NONE, Method: PREINCUBATION); “inactive; negative” (Test System: AMES SALMONELLA TYPHIMURIUM, Strain/Indicator: TA1537, Metabolic Activation: RAT, LIVER, S-9, AROCLOR 1254 (10%), Method: PREINCUBATION).

Take `N[C@@H](CCC(=O)N(CC(=O)O)C(=O)[C@@H](N)CSCCCl)C(=O)O`: the mutagenic call under setting [1] was “active; positive”.

Turning to `CCCCNC(=O)c1cc(N)ccc1Oc1ccccc1`, the mutagenic call is “inactive; negative. data for this compound, pa10, mentioned in abstract only” (Test System: Ames Salmonella typhimurium, Strain/Indicator: TA98, Metabolic Activation: None, Method: Preincubation); “inactive; negative. this compound, pa10, converted by s-9 to a hydroxy derivative” (Test System: Ames Salmonella typhimurium, Strain/Indicator: TA98, Metabolic Activation: Rat, Liver, S-9, Phenobarbital and beta-naphthoflavone, Method: Preincubation); “inactive; negative. data for this compound, pa10, mentioned in abstract only” (Test System: Ames Salmonella typhimurium, Strain/Indicator: TA100, Metabolic Activation: None, Method: Preincubation); “inactive; negative. this compound, pa10, converted by s-9 to a hydroxy derivative” (Test System: Ames Salmonella typhimurium, Strain/Indicator: TA100, Metabolic Activation: Rat, Liver, S-9, Phenobarbital and beta-naphthoflavone, Method: Preincubation); “inactive; negative. data for this compound, pa10, mentioned in abstract only” (Test System: Ames Salmonella typhimurium, Strain/Indicator: TA102, Metabolic Activation: None, Method: Preincubation); “inactive; negative. data for this compound, pa10, mentioned in abstract only” (Test System: Ames Salmonella typhimurium, Strain/Indicator: TA1535, Metabolic Activation: None, Method: Preincubation). The mutagenic call (Test System: Ames Salmonella typhimurium, Strain/Indicator: TA1537, Metabolic Activation: None, Method: Preincubation) was “inactive; negative. data for this compound, pa10, mentioned in abstract only”.

Consider `CC(=O)NNc1ccccc1`, for which the mutagenic call reads like this: (Test System: AMES SALMONELLA TYPHIMURIUM, Strain/Indicator: TA97, Metabolic Activation: HAMSTER, LIVER, S-9, AROCLOR 1254 (5%), Method: PREINCUBATION) “inactive; negative”; (Test System: AMES SALMONELLA TYPHIMURIUM, Strain/Indicator: TA97, Metabolic Activation: HAMSTER, LIVER, S-9, AROCLOR 1254 (10%), Method: PREINCUBATION) “inactive; negative”; (Test System: AMES SALMONELLA TYPHIMURIUM, Strain/Indicator: TA97, Metabolic Activation: HAMSTER, LIVER, S-9, AROCLOR 1254 (30%), Method: PREINCUBATION) “active; positive”; (Test System: AMES SALMONELLA TYPHIMURIUM, Strain/Indicator: TA97, Metabolic Activation: NONE, Method: PREINCUBATION) “active; positive”; (Test System: AMES SALMONELLA TYPHIMURIUM, Strain/Indicator: TA97, Metabolic Activation: RAT, LIVER, S-9, AROCLOR 1254 (5, 10 OR 30%), Method: PREINCUBATION) “inactive; negative”; (Test System: AMES SALMONELLA TYPHIMURIUM, Strain/Indicator: TA98, Metabolic Activation: HAMSTER, LIVER, S-9, AROCLOR 1254 (5, 10 OR 30%), Method: PREINCUBATION) “inactive; negative”. In addition, the mutagenic call reads like this: under setting [2], “inactive; negative”; (Test System: AMES SALMONELLA TYPHIMURIUM, Strain/Indicator: TA98, Metabolic Activation: RAT, LIVER, S-9, AROCLOR 1254 (5, 10 OR 30%), Method: PREINCUBATION) “inactive; negative”; (Test System: AMES SALMONELLA TYPHIMURIUM, Strain/Indicator: TA100, Metabolic Activation: HAMSTER, LIVER, S-9, AROCLOR 1254 (5%), Method: PREINCUBATION) “inactive; negative”; under setting [3], “inactive; negative”; (Test System: AMES SALMONELLA TYPHIMURIUM, Strain/Indicator: TA100, Metabolic Activation: HAMSTER, LIVER, S-9, AROCLOR 1254 (30%), Method: PREINCUBATION) “inactive; negative”; under setting [4], “inactive; negative”. Further, the mutagenic call (Test System: AMES SALMONELLA TYPHIMURIUM, Strain/Indicator: TA100, Metabolic Activation: RAT, LIVER, S-9, AROCLOR 1254 (5%), Method: PREINCUBATION) was “inactive; negative”; the mutagenic call under setting [5] was “inactive; negative”; the mutagenic call (Test System: AMES SALMONELLA TYPHIMURIUM, Strain/Indicator: TA100, Metabolic Activation: RAT, LIVER, S-9, AROCLOR 1254 (30%), Method: PREINCUBATION) is “inactive; negative”; the mutagenic call under setting [6] was “inactive; negative”; the mutagenic call (Test System: AMES SALMONELLA TYPHIMURIUM, Strain/Indicator: TA1535, Metabolic Activation: HAMSTER, LIVER, S-9, AROCLOR 1254 (30%), Method: PREINCUBATION) was “inactive; negative”; the mutagenic call under setting [7] was “active; positive”. Moreover, the mutagenic call was “inactive; negative” (Test System: AMES SALMONELLA TYPHIMURIUM, Strain/Indicator: TA1535, Metabolic Activation: RAT, LIVER, S-9, AROCLOR 1254 (5%), Method: PREINCUBATION); “inactive; negative” under setting [8]; “inactive; negative” (Test System: AMES SALMONELLA TYPHIMURIUM, Strain/Indicator: TA1535, Metabolic Activation: RAT, LIVER, S-9, AROCLOR 1254 (30%), Method: PREINCUBATION).

As for `N#Cc1cc([N+](=O)[O-])ccc1N`, the mutagenic call is “active; positive” under setting [2]; “active; positive” (Test System: AMES SALMONELLA TYPHIMURIUM, Strain/Indicator: TA98, Metabolic Activation: RAT, LIVER, S-9, PHENOBARBITAL AND BETA-NAPHTHOFLAVONE, Method: PREINCUBATION); “active; positive” under setting [4]; “active; positive” (Test System: AMES SALMONELLA TYPHIMURIUM, Strain/Indicator: TA100, Metabolic Activation: RAT, LIVER, S-9, PHENOBARBITAL AND BETA-NAPHTHOFLAVONE, Method: PREINCUBATION).

The record behind these values is PubChem BioAssay AID1259407 (Chemical Carcinogenesis Research Information System (CCRIS), 2018).
